US12458678B2, “Composition for preventing or treating prostatic hyperplasia comprising mixed extracts of Curcumae radix and Syzygii flos” (UNIVERSITY-INDUSTRY COOPERATION GROUP OF KYUNG HEE …, priority 2019, dated 2025)

Experiments:
cyclin B1 = test: Cyclin B1 expression in prostate tissue, Western blot; type: in vivo, Sprague-Dawley (SD) rats; details: Example 11.5, FIG. 15; comparison with finasteride
[1] = tested on: prostate epithelial cells; test: H&E staining of prostate tissue, prostate epithelial cell thickness; type: in vivo, Sprague-Dawley (SD) rats; details: TP-induced BPH rats, FIG. 3B
Method: To induce benign prostatic hyperplasia, rats were divided into four groups, and six animals were randomly assigned to each group. Three groups among them were injected with TP (5 mg/kg/day) into the groin for 4 weeks, and one group, a normal control group, was injected with the same amount of ethanol. After induction of benign prostatic hyperplasia for 4 weeks, the experiment was performed by various treatment as follows: (i) a normal control group injected with ethanol for an additional four weeks (NC group); (ii) a disease control group injected with TP for an additional four weeks (benign prostatic hyperplasia, BPH group); […] Prostate samples fixed in paraffin were cut to a thickness of 4 μm. […] Tissue sections were treated in 150 μl of 0.1% trypsin working solution (composition: trypsin 0.4 ml, calcium 0.01 g, chloride 0.01 g in D.W. 7 ml) for 15 minutes, and then blocked using fetal bovine serum (FBS). For H&E staining, the cut tissue was immersed in hematoxylin solution for 5 minutes, distilled water for 5 minutes, and eosin solution for 30 seconds, and then dried and fixed. The slides were observed using an Olympus IX71 Research Inverted Phase microscope (Olympus Co., Tokyo, Japan), and the density was measured using ImageJ 1.47v software (National Institute of Health, MD, USA).

[2] = tested on: dihydrotestosterone (DHT); test: Dihydrotestosterone (DHT) assay by ELISA in BPH rats; type: in vivo, Sprague-Dawley (SD) rats; details: Example 11.1, FIG. 11; comparison with finasteride
[3] = tested on: benign prostatic hyperplasia animal model; test: Prostate tissue weight and prostate index in TP-induced benign prostatic hyperplasia rats; type: in vivo, Sprague-Dawley (SD) rats; details: FIG. 2 upper
Method: For the benign prostatic hyperplasia animal model, 12-week-old male Sprague-Dawley (SD) rats (200±20 g) were purchased and tested from Daehan Biolink (Eumseong, Korea). After an acclimatization period for 1 week before the start of the experiment, feed and water were freely ingested for 6 weeks during the experiment. In an environment in which the light was controlled at intervals of 12 hours, the indoor temperature was 23±2° C., and the humidity was maintained at 70%. To induce benign prostatic hyperplasia, rats were divided into four groups, and six animals were randomly assigned to each group. Three groups among them were injected with TP (5 mg/kg/day) into the groin for 4 weeks, and one group, a normal control group, was injected with the same amount of ethanol. After induction of benign prostatic hyperplasia for 4 weeks, the experiment was performed by various treatment as follows: (i) a normal control group injected with ethanol for an additional four weeks (NC group); (ii) a disease control group injected with TP for an additional four weeks (benign prostatic hyperplasia, BPH group); […] In addition, in order to correct the difference in tissue weight according to body weight, the prostate index was calculated by dividing the weight of the prostate in mg with respect to 100 g of body weight.

[4] = tested on: sperm count in the epididymis; test: Analysis of sperm count in epididymis; type: in vivo, SD rats; details: cauda epididymis of BPH rats; FIG. 17
Method: After excision of cauda epididymis from […] SD rats, it was cut into small pieces twice. Then, they were immersed in 4 ml of PBS for 1 hour to cause the sperm to spread into the PBS solution. After mixing PBS containing sperm with the same amount of methanol, they were observed using a hematocytometer and an Olympus IX71 Research Inverted Phase microscope (Olympus Co., Tokyo, Japan).
In order to check the sperm count, after excision of the cauda epididymis of the SD rat group used in the above-mentioned Examples, it was cut into small pieces twice. Then, they were placed in 4 ml of PBS for 1 hour to allow the sperm to spread into the PBS solution. After mixing PBS containing sperm with the same amount of methanol, they were observed using a hematocytometer and an Olympus IX71 Research Inverted Phase microscope.

[5] = tested on: proliferating cell nuclear antigen (PCNA); test: PCNA expression in prostate tissue, Western blot; type: in vivo, Sprague-Dawley (SD) rats; details: Example 11.4, FIG. 14; comparison with finasteride
[6] = tested on: prostate specific antigen (PSA); test: Prostate specific antigen expression in prostate tissue, Western blot; type: in vivo, Sprague-Dawley (SD) rats; details: Example 11.2, FIG. 12; comparison with finasteride

sperm count compared to the NC group [4]: 56%
Compound: CC(C)(C)NC(=O)[C@H]1CC[C@H]2[C@@H]3CC[C@H]4NC(=O)C=C[C@]4(C)[C@H]3CC[C@]12C [finasteride]
cyclin B1 expression inhibited based on the BPH group (cyclin B1): 41%
thickness of prostate epithelial cells ([1]; BPH group 12.06 μm, NC group 9.68 μm): 9.38 μm
prostate epithelial cell thickness reduced compared to the BPH group [1]: 22%
DHT expression inhibited based on the BPH group [2]: 77%
average prostate weight ([3]; TP-induced BPH rats, UM-002 50 mg/kg/day or finasteride 1 mg/kg/day for 4 weeks, BPH group 1.73 g, NC group 0.73 g): 0.93 g
prostate weight lower than that of the BPH group ([3]; vs BPH group 1.73 g): 54%
PCNA expression inhibited based on the BPH group [5]: 45%
PSA expression inhibited based on the BPH group [6]: 55%
